# Test results as given in US12662491B2 (Redona Therapeutics, Inc., priority 2020, dated 2026).
# Target: T1, Zcchc11 enzyme (Homo sapiens, UniProt Q5TAX3)
# T1 construct: made in house; host or cells: HEK293 cells (Zcchc11); E. coli Rosetta II (LIN28A)
# T1 sequence (Q5TAX3 212-1420): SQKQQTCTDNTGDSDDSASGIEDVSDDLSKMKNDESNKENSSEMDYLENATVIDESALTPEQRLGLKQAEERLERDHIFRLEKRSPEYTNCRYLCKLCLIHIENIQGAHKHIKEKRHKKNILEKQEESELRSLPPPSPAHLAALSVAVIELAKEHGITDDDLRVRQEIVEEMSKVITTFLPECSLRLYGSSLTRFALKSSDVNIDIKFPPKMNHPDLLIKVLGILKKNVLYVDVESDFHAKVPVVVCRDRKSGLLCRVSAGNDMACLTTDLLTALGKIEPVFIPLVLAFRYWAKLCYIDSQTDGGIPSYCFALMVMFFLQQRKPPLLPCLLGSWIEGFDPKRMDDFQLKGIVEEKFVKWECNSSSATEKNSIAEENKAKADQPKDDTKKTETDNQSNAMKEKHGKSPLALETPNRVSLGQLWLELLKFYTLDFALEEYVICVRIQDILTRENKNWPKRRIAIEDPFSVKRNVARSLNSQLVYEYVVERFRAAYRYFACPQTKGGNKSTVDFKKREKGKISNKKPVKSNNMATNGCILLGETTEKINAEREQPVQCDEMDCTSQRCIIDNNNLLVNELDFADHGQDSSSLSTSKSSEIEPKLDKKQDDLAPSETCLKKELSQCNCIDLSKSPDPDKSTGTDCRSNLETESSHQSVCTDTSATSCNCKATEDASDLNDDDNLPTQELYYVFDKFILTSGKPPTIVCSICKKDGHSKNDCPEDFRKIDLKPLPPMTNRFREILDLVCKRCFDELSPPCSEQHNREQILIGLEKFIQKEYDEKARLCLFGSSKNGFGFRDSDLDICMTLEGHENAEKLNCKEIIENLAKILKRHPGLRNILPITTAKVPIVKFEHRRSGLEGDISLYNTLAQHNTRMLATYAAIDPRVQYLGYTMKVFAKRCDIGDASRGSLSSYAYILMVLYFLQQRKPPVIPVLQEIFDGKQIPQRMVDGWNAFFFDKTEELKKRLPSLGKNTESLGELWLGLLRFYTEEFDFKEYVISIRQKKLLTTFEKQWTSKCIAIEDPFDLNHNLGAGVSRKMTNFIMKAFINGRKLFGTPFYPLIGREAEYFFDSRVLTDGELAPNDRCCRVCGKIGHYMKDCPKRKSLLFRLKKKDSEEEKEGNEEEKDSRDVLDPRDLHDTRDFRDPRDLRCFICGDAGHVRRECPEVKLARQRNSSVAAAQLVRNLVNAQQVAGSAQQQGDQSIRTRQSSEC
# Assay: TUTase assay (Zcchc11 assay, Lin28a-dependent polyuridylation of pre-let-7)
# Format: biochemical
# Details: LIN28A 10 nM, Zcchc11 0.2 nM, 5′-fluorescein pre-let-7 miRNA 2 nM, UTP 5 uM, room temperature, 30 minutes pre-incubation; read-out: Potency Lin28a-dep Z11 IC50
# Method: The purpose of the Zcchc11 assay is to determine compound potency against Zcchc11 enzyme through the measurement of IC50. Compound inhibition is measured as a function of polyuridine tails added to RNA substrates in the presence of active TUTase, UTP, and inhibitor. The Zcchc11 assay was done in a black, non-binding, 384 well plate (Corning #3575). All steps were performed at room temperature. For a typical assay, a 29 ul aliquot of assay buffer (50 mM HEPES pH 7.3, 150 mM KCl, 5 mM MgCl2, 10 mM DTT, 0.01% Triton X-100, 40 U/ml RNAsin (Promega)) containing LIN28A protein (final concentration: 10 nM) is added to each well. Next, 1 ul of compound in 100% DMSO is transferred from a compound dilution plate in which the compound is serially diluted. Next, 10 ul of a 5× mix of Zcchc11 and RNA substrate (5′-fluorescein labeled pre-let-7 miRNA (Dharmacon)) is added (final concentrations: 0.2 nM and 2 nM, respectively). The plate is placed on a plate shaker for 30 seconds to produce mixing, then incubated for 30 minutes. Next, 10 ul of a 5× mix of UTP and the quenching probe (3′-rhodamine labeled A20, polyadenosine nucleotide, (IDT)) is added (final concentrations: 5 uM and 4 nM, respectively). The plate is immediately placed in a Biotek Cytation 5 plate reader, and the time-dependent decrease in fluorescein fluorescence resulting from annealing of the A20 probe to polyuridine tails is recorded, using the kinetics mode of the reader. Reaction rates are obtained using linear fits to the early portion of progress curves. IC50 values are calculated using a four parameter fit with 100% enzyme activity determined from the DMSO control and 0% activity from control samples lacking UTP.
# The LIN28A protein was expressed in and purified from E. coli, strain Rosetta II (Novagen). The entire coding sequence of the human, wild-type protein was cloned into expression vector pMAL (NEB), down-stream from a maltose-binding protein tag. The linker sequence contained a TEV protease cleavage site. The protein was purified from bacterial extracts using an MBP-Trap column (GE Healthcare Life Sciences), followed by tag cleavage and removal of the tag by ion-exchange chromatography. When necessary, contaminating bacterial RNA was removed using the procedure describe by Faehnle C R. et al. (2017) Multi-domain utilization by TUT4 and TUT7 in control of let-7 biogenesis. Nat Struct Mol Biol, 24:658-665.
# The Zcchc11 protein was expressed in and purified from HEK293 cells. A truncated protein comprising residues 212-1420 of the human sequence was cloned into expression vector pTT5 (Viva Biotech) down-stream from a maltose-binding protein tag. The linker sequence contained a TEV protease cleavage site, and a FLAG tag was added to the carboxyl terminus of the protein. The protein was purified from cell extracts using an MBP-Trap column (GE Healthcare Life Sciences), followed by tag cleavage and further enrichment of the full length construct using anti-FLAG affinity media (Sigma Aldrich).
# “+” represents an IC50 value that is greater than 50 μM; “++” represents an IC50 value that is greater than 10 μM and equal to or less than 50 μM; “+++” represents an IC50 value that is greater than 1 μM and equal to or less than 10 μM; and “++++” represents an IC50 value that is equal to or less than 1 μM.
row,IC50 [nM],SMILES
1,≤ 1000,"CN(C)C1CN(c2ccc(-n3cc(C(=O)O)c(=O)c4cc(Cl)c(N5CCC6CC65COc5ncccc5Cl)cc43)cn2)C1 (stereo not drawn) [Example 48, 6-chloro-7-(1-[[(3-chloropyridin-2-yl)oxy]methyl]-2-azabicyclo[3.1.0]hexan-2-yl)-1-[6-[3-(dimethylamino)azetidin-1-yl]pyridin-3-yl]-4-oxoquinoline-3-carboxylic acid]"
2,≤ 1000,"O=C(O)c1cn(-c2ccc(O)cc2)c2cc(N3CCC[C@@H]3Cn3ccc4ncccc43)c(F)cc2c1=O [Example 11, (R)-7-(2-((1H-pyrrolo[3,2-b]pyridin-1-yl)methyl)pyrroledin-1-yl)-6-fluoro-1-(4-hydroxyphenyl)-4-oxo-1,4-dihydroquinoline-3-carboxylic acid]"
3,≤ 1000,"CS(=O)(=O)Nc1ccc(-n2cc(C(=O)O)c(=O)c3cc(Cl)c(N4CCC[C@@H]4COc4ncccc4Cl)cc32)cn1 [Example 26, 6-chloro-7-[(2R)-2-{[(3-chloropyridin-2-yl)oxy]methyl}pyrrolidin-1-yl]-1-(6-methanesulfonamidopyridin-3-yl)-4-oxo-1,4-dihydroquinoline-3-carboxylic acid]"

# Same assay, conditions: Lin28a-dependent Zcchc11 (Z11) TUTase activity; read-out: Potency Lin28a-dep Z11 IC50
row,IC50 [nM],SMILES
1,> 50000,"Cc1cccc(C)c1OC[C@H]1CCCN1c1cc2c(cc1F)c(=O)c(C(=O)O)cn2-c1ccc(O)cc1 [Compound 106, (R)-7-(2-((2,6-dimethyl-phenoxy)methyl)pyrrolidin-1-yl)-6-fluoro-1-(4-hydroxy-phenyl)-4-oxo-1,4-dihydro-quinoline-3-carboxylic acid]"
2,≤ 1000,"Cc1cccnc1OC[C@H]1CCCN1c1cc2c(cc1Cl)c(=O)c(C(=O)O)cn2-c1ccc(N)nc1 [Compound 210, (R)-1-(6-aminopyridin-3-yl)-6-chloro-7-(2-(((3-methylpyridin-2-yl)oxy)methyl)pyrrolidin-1-yl)-4-oxo-1,4-dihydro-quinoline-3-carboxylic acid]"
3,≤ 1000,"O=C(O)c1cn(-c2cnccn2)c2cc(N3CCC[C@@H]3COc3ncccc3Cl)c(F)cc2c1=O [Compound 240, 7-[(2R)-2-[[(3-chloropyridin-2-yl)oxy]methyl]pyrrolidin-1-yl]-6-fluoro-4-oxo-1-(pyrazin-2-yl)quinoline-3-carboxylic acid]"
4,≤ 1000,"O=C(O)c1cn(-c2ccccc2)c2c(F)c(N3CCC[C@@H]3COc3ccccn3)c(F)cc2c1=O [Compound 86, (R)-6,8-difluoro-4-oxo-1-phenyl-7-(2-((pyridin-2-yloxy)methyl)pyrrolidin-1-yl)-1,4-dihydro-quinoline-3-carboxylic acid]"
5,≤ 1000,"COC1C[C@H](COc2ncccc2Cl)N(c2cc3c(cc2Cl)c(=O)c(C(=O)O)cn3-c2ccc(N3CC(N(C)C)C3)nc2)C1 (stereo partly drawn) [Compound 327, 6-Chloro-7-[(2R)-2-[[(3-chloropyridin-2-yl)oxy]methyl]-4-methoxy-pyrrolidin-1-yl]-1-[6-[3-(dimethyl-amino)azetidin-1-yl]pyridin-3-yl]-4-oxoquinoline-3-carboxylic acid]"

# Same assay, conditions: Lin28a-dependent Zcchc11 (Z11) TUTase assay; read-out: Potency Lin28a-dep Z11 IC50
row,IC50 [nM],SMILES
1,≤ 1000,"O=C(O)c1cn(-c2cnccn2)c2cc(N3C[C@H](F)C[C@@H]3COc3ncccc3Cl)c(Cl)cc2c1=O [Example 590, 6-chloro-7-((2R,4R)-2-(((3-chloropyridin-2-yl)oxy)methyl)-4-fluoropyrrolidin-1-yl)-4-oxo-1-(pyrazin-2-yl)-1,4-dihydroquinoline-3-carboxylic acid]"
2,≤ 1000,"Cc1cc2c(=O)c(C(=O)O)cn(-c3ccc(N4CC(N(C)C)C4)nc3)c2nc1N1CCC[C@@H]1COc1ncccc1Cl [Example 633, (R)-7-(2-(((3-chloropyridin-2-yl)oxy)methyl)pyrrolidin-1-yl)-1-(6-(3-(dimethylamino)azetidin-1-yl)pyridin-3-yl)-6-methyl-4-oxo-1,4-dihydro-1,8-naphthyridine-3-carboxylic acid]"
3,1000 to 10000,"O=C(O)c1cn(-c2ccccc2CO)c2cc(N3CCC[C@@H]3COc3ccccn3)c(F)cc2c1=O [Example 403, (R)-6-fluoro-1-(2-(hydroxymethyl)phenyl)-4-oxo-7-(2-((pyridin-2-yloxy)methyl)pyrrolidin-1-yl)-1,4-dihydroquinoline-3-carboxylic acid]"
4,≤ 1000,"O=C(O)c1cn(-c2ncccn2)c2cc(N3CCC[C@@H]3COc3ncccc3Cl)c(Cl)cc2c1=O [Example 500, (R)-6-chloro-7-(2-(((3-chloropyridin-2-yl)oxy)methyl)pyrrolidin-1-yl)-4-oxo-1-(pyrimidin-2-yl)-1,4-dihydroquinoline-3-carboxylic acid]"
5,≤ 1000,"N#CCn1cc(C(=O)O)c(=O)c2cc(Cl)c(N3CCC[C@@H]3COc3ncccc3Cl)cc21 [Example 569, (R)-6-chloro-7-(2-(((3-chloropyridin-2-yl)oxy)methyl)pyrrolidin-1-yl)-1-(cyanomethyl)-4-oxo-1,4-dihydroquinoline-3-carboxylic acid]"
6,≤ 1000,"CN(C)C1CN(c2ccc(-n3cc(C(=O)O)c(=O)c4cc(Cl)c(N5CCC[C@@]5(C)COc5ncccc5Cl)cc43)cn2)C1 [Example 639, (S)-6-chloro-7-(2-(((3-chloropyridin-2-yl)oxy)methyl)-2-methylpyrrolidin-1-yl)-1-(6-(3-(dimethylamino)azetidin-1-yl)pyridin-3-yl)-4-oxo-1,4-dihydroquinoline-3-carboxylic acid]"
7,≤ 1000,"O=C(O)c1cn(-c2ccc3[nH]cnc3c2)c2cc(N3CCC[C@@H]3COc3ccccn3)c(F)cc2c1=O [Example 440, (R)-1-(1H-benzo[d]imidazol-5-yl)-6-fluoro-4-oxo-7-(2-((pyridin-2-yloxy)methyl)pyrrolidin-1-yl)-1,4-dihydroquinoline-3-carboxylic acid]"
